# ChEMBL document CHEMBL3351379, “Dihydropyrrolo[2,3-d]pyrimidines: Selective Toll-Like Receptor 9 Antagonists from Scaffold Morphing Efforts” (ACS Med Chem Lett, 2014)
# pIC50: −log10 of the molar value.
# Experiments:
# Toll-like receptor 9 = target: T1, Toll-like receptor 9 (Homo sapiens, UniProt Q9NR96); assay: Antagonist activity at human TLR9 transfected in HEK293 cells after 6 hrs by NF-kappaB luciferase reporter assay; format: cell-based
# T1 sequence (Q9NR96 whole entry): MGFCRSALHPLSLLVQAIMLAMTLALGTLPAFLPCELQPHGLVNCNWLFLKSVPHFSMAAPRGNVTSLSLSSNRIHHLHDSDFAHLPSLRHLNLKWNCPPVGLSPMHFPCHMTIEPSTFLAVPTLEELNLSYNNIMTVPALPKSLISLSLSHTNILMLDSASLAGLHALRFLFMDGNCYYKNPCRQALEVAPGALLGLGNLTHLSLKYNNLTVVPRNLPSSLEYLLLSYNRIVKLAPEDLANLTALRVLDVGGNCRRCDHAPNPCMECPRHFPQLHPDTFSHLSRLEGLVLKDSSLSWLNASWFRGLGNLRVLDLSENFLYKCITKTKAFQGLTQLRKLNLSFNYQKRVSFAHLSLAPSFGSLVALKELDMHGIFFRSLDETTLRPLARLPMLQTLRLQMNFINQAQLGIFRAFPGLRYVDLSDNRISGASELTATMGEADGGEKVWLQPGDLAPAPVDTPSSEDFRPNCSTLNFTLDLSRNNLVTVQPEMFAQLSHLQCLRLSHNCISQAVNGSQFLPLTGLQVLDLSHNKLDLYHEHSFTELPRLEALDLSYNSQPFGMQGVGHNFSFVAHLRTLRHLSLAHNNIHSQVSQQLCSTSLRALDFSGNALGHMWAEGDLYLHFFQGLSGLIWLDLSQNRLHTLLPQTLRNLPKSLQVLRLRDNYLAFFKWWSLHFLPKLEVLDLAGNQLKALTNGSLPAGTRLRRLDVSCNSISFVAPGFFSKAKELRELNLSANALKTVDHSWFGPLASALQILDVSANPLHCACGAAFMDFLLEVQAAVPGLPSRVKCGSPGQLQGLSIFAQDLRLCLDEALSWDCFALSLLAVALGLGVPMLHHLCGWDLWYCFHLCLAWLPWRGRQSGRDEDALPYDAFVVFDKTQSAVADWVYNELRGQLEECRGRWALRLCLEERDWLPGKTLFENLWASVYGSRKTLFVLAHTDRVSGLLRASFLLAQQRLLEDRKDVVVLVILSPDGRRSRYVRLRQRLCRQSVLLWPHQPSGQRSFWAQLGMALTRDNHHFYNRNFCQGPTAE
# Homo sapiens = species on record: Homo sapiens; assay: Metabolic stability in human assessed per mg protein; format: ADME
# HEK293 = assay: Selectivity ratio of IC50 for human TLR7 transfected in HEK293 cells to IC50 for human TLR9 transfected in HEK293 cells; format: cell-based
# [1] = Aqueous solubility of the compound at pH 7.4; format: physicochemical
# Mus musculus [2] = assay: Inhibition of IL-6 production in iv dosed C57BL/6 mouse plasma compound administered 1 hr prior to CpG1826 treatment measured after 2 hrs by ELISA; format: functional; conditions: C57BL/6, Plasma
# Toll-like receptor 7 = target: T2, Toll-like receptor 7 (Homo sapiens, UniProt Q9NYK1); assay: Antagonist activity at human TLR7 transfected in HEK293 cells assessed as hydrolysis of pNPP after 24 hrs by SEAP reporter assay; format: cell-based
# T2 sequence (Q9NYK1 whole entry): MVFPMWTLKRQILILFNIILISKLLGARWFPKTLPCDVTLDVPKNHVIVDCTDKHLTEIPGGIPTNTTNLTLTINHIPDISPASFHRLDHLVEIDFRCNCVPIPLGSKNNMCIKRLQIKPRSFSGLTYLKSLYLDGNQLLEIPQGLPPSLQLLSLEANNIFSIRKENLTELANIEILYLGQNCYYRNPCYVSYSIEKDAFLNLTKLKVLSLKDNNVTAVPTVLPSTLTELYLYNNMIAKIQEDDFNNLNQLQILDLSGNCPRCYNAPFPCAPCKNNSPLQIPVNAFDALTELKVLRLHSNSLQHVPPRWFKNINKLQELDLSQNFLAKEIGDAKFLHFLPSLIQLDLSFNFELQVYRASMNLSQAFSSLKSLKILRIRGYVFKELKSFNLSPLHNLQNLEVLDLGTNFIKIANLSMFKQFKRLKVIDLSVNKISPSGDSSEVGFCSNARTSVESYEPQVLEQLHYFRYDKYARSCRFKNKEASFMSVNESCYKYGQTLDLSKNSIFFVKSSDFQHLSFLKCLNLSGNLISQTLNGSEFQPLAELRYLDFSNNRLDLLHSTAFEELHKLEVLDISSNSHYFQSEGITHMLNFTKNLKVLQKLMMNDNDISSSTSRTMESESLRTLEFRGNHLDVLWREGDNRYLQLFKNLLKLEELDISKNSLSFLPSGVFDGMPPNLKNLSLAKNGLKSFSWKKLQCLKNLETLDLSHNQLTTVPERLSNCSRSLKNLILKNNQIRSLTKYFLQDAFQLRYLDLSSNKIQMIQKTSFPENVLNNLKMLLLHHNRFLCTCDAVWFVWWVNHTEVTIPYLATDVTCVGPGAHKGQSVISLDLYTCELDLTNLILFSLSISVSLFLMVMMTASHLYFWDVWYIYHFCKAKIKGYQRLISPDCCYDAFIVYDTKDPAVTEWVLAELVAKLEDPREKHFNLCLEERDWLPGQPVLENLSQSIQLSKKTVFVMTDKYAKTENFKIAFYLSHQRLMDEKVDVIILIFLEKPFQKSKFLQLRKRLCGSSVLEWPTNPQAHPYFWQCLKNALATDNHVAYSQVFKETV
# PBMC = assay: Inhibition of CpG-induced IL-6 production in human PBMC after 24 hrs by ELISA; format: functional, cell-based
# Mus musculus [3] = assay: Inhibition of IL-6 production in iv dosed C57BL/6 mouse peritoneal lavage fluid compound administered 1 hr prior to CpG1826 treatment measured after 2 hrs by ELISA; format: functional, organism-based
# Splenocyte = assay: Inhibition of CpG-induced IL-6 production in C57BL/6 mouse splenocytes after 24 hrs by ELISA; format: functional, cell-based; conditions: C57BL/6, Splenocyte
# Toll-like receptor 8 = target: T3, Toll-like receptor 8 (Homo sapiens, UniProt Q9NR97); assay: Antagonist activity at human TLR8 transfected in HEK293 cells after 6 hrs by NF-kappaB luciferase reporter assay; format: cell-based
# T3 sequence (Q9NR97 whole entry): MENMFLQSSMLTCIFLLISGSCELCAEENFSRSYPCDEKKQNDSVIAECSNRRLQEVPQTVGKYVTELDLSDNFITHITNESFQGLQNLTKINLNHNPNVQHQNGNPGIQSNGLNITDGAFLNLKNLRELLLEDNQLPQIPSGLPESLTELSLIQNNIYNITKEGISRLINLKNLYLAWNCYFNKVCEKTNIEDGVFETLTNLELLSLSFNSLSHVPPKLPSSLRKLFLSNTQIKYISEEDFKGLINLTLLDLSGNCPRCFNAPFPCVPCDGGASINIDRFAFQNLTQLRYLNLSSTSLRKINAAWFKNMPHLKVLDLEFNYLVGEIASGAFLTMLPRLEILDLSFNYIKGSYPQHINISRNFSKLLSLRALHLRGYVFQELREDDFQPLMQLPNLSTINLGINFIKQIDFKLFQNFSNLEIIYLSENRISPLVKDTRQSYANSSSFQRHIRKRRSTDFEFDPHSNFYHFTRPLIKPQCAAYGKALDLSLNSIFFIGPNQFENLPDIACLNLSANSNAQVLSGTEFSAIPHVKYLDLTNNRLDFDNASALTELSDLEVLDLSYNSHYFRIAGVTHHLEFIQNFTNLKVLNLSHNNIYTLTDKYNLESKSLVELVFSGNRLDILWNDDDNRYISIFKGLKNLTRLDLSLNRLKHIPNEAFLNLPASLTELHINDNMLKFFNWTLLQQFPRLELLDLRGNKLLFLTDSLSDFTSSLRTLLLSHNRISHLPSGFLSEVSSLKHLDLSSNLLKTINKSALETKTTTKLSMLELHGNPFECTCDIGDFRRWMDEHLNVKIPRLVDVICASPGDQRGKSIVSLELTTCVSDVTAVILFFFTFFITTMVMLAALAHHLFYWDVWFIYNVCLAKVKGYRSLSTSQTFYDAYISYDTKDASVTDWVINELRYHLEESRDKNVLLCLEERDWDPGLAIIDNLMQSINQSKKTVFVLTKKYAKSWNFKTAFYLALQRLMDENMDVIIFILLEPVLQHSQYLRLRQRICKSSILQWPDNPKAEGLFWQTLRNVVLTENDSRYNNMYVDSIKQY
Compound,pIC50 (Toll-like receptor 9),further results
COc1nc(-c2ccc(N3CCN(C)CC3)cc2)nc2c1CCN2CCCN1CCCC1,6.92,–
CN1CCN(c2ccc(-c3nc(Cl)c4c(n3)N(CCCN3CCCC3)CC4)cc2)CC1,7.08,–
CN1CCN(c2ccc(-c3ncc4c(n3)N(CCN3CCOCC3)CC4)cc2)CC1,7.14,–
COCCN1CCN(c2ccc(-c3ncc4c(n3)N(CCCN3CCOCC3)CC4)cc2)CC1,7.55,–
Cc1nc(-c2ccc(N3CCN(C)CC3)cc2)nc2c1CCN2CCN1CCOCC1,7.70,Ratio IC50 (HEK293): 93; Stability (Homo sapiens): < 10 µL/min/mg
Cc1nc(-c2ccc(N3CCN(C)CC3)cc2)nc(NCCN2CCOCC2)c1C,7.46,Stability (Homo sapiens): 69 µL/min/mg
Cc1cnc(-c2ccc(N3CCN(C)CC3)cc2)nc1NCCN1CCOCC1,6.92,–
CN1CCN(c2cccc(-c3ncc4c(n3)N(CCCN3CCOCC3)CC4)c2)CC1,7.25,–
CN1CCN(c2ccc(-c3nc(N(C)C)c4c(n3)N(CCCN3CCCC3)CC4)cc2)CC1,7.14,–
CN1CCN(c2ccccc2-c2ncc3c(n2)N(CCCN2CCOCC2)CC3)CC1,7.25,–
CN1CCN(c2ccc(-c3ncc4c(n3)N(CCCN3CCOCC3)CC4)cc2)C(=O)C1,< 6.00,–
CN1CCN(c2ccc(-c3nccc(NCCN4CCOCC4)n3)cc2)CC1,6.72,–
CN1CCN(c2ccc(-c3nc4c(c(NCCN5CCOCC5)n3)CCCC4)cc2)CC1,7.57,Ratio IC50 (HEK293): 71
CN1CCN(c2ccc(-c3nc4c(c(NCCN5CCOCC5)n3)COCC4)cc2)CC1,6.72,–

# The next molecules have a higher pIC50 (Toll-like receptor 9) than those just listed; values first:
pIC50 (Toll-like receptor 9),Compound,further results
8.41,CN1CCN(c2ccc(-c3ncc4c(n3)N(CCCN3CCCC3)CC4)cc2)CC1,Stability (Homo sapiens): 71 µL/min/mg
7.96,CN1CCN(c2ccc(-c3ncc4c(n3)N(CCCCN3CCOCC3)CC4)cc2)CC1,–
8.07,CN1CCN(c2ccc(-c3ncc4c(n3)N(CCCN3CCOCC3)CC4)cc2)CC1,Ratio IC50 (HEK293): > 50; solubility [1]: 1.1 mg/mL
8.34,COc1cc2nc(-c3ccc(N4CCN(C)CC4)cc3)nc(NCCN3CCOCC3)c2cc1OC,solubility [1]: 0.12 mg/mL
7.89,OCCN1CCN(c2ccc(-c3ncc4c(n3)N(CCCN3CCOCC3)CC4)cc2)CC1,ED50 (Mus musculus [2]): 0.8 mg/kg; Ratio IC50 (HEK293): 75; solubility [1]: > 10 mg/mL; pIC50 (Toll-like receptor 7): 6.01; pIC50 (PBMC): 6.61; inhibition (Mus musculus [3]): Dose-dependent effect; pIC50 (Splenocyte): 7.13; pIC50 (Toll-like receptor 8): < 5.00
7.80,Cc1nc(-c2ccc(N3CCN(C)CC3)cc2)nc2c1CCN2CCCN1CCOCC1,Stability (Homo sapiens): < 10 µL/min/mg
8.46,Cc1nc(-c2ccc(N3CCN(C)CC3)cc2)nc2c1CCN2CCCN1CCCC1,Stability (Homo sapiens): 35 µL/min/mg
7.96,Cc1nc(-c2ccc(N3CCN(C)CC3)cc2)nc2c1CCN2CCN1CCCC1,–
